Laboratory results reported in article PMC9329268 (Angewandte Chemie (International ed. in English), 2022).
Values after ≈ are worked out from the molar mass of the structure shown.

Key:
[1] = system: healthy (normal) and cancer cell lines; settings: read-out: IC50 (rapid cytotoxic activity); within 24 h; ref 4a; cited from earlier work
[2] = system: MraY; settings: read-out: IC50 MraY
[3] = system: Mycobacterium smegmatis (ATCC607); assay: Antibacterial activity; format: cell-based
[4] = system: Mycobacterium tuberculosis (H37Rv); assay: Antibacterial activity; format: cell-based
[5] = Water-solubility; format: physicochemical
[6] = molecular target: T1, human dolichyl-phosphate N-acetylglucosaminephosphotransferase 1 (DPAGT1) (Homo sapiens, UniProt Q9H3H5); format: biochemical; settings: read-out: IC50 DPAGT1; Human enzyme; n = 3
T1 sequence (Q9H3H5 1-408): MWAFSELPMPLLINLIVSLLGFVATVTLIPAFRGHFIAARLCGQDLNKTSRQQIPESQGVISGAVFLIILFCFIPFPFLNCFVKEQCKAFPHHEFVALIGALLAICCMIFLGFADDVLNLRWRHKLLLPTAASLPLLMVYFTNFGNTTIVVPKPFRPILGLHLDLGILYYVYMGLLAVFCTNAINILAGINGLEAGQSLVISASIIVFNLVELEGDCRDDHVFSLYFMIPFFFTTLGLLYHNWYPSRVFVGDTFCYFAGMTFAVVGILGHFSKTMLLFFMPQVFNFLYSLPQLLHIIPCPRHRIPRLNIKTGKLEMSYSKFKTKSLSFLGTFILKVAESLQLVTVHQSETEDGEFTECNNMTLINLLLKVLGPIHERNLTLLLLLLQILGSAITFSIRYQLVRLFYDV

[7] = molecular target: T2, AglH (Methanocaldococcus jannaschii, UniProt Q58513); format: biochemical; settings: read-out: IC50 AglH; Methanococcus jannaschii enzyme; n = 3
T2 sequence (Q58513 1-301): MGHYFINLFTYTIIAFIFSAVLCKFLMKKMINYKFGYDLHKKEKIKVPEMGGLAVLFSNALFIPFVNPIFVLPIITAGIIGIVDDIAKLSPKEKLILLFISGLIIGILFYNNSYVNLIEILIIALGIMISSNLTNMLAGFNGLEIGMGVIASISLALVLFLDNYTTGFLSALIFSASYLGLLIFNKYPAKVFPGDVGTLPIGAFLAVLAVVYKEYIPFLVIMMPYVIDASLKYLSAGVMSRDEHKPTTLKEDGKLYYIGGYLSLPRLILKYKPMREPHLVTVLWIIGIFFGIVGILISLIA

[8] = system: Bacillus cereus (ATCC1479); assay: Antibacterial activity; format: cell-based
[9] = system: Streptococcus salivarius (ATCC7752); assay: Antibacterial activity; format: cell-based

| Compound | IC50 [1] [nM] | IC50 [2] [nM] | MIC [3] [µg/mL] | MIC [4] [µg/mL] | solubility [5] [µg/mL] | IC50 [6] [nM] | IC50 [7] [nM] | MIC [8] [µg/mL] | MIC [9] [µg/mL] |
| --- | --- | --- | --- | --- | --- | --- | --- | --- | --- |
| CC(=O)N[C@H]1[C@@H](O[C@@H]2O[C@H](C[C@@H](O)[C@H]3O[C@@H](n4ccc(=O)[nH]c4=O)[C@H](O)[C@@H]3O)[C@H](O)[C@H](O)[C@H]2NC(=O)/C=C/CCCCCCCCCC(C)C)O[C@H](CO)[C@@H](O)[C@@H]1O [TN-V (1, synthetic), tunicamycin V] | 500 to 2500 | 2500 | 6.3 (≈ 7.58 µM) | 6.3 (≈ 7.58 µM) | < 200 | 1500 | 13000 | 0.4 (≈ 0.481 µM) | 25.0 (≈ 30.1 µM) |
| CC(=O)N[C@H]1[C@@H](O[C@@H]2O[C@H](C[C@@H](O)[C@H]3O[C@@H](n4ccc(=O)[nH]c4=O)[C@H](O)[C@@H]3O)[C@H](O)[C@H](O)[C@H]2NC(=O)/C=C/CCCCCCCCCC(C)C)O[C@H](CO)[C@@H](O)[C@@H]1O [TN-V (natural), tunicamycin V, reference compound] | – | 2900 | – | – | – | 1500 | 13200 | – | – |
